Measured values from ChEMBL document CHEMBL5463728, “Data for DCP probe BAY-6096” (2023).

Legend:
[1] = biological target: Alpha-1D adrenergic receptor (Homo sapiens) (UniProt P25100); settings: Compound concentration 10.0 uM
[2] = biological target: GABA-A receptor; anion channel (Rattus norvegicus) (UniProt O09028+P15431+P18506+P18508+P19969+P20236+P23574+P23576+P28471+P28473+P30191+P62813+P63079+P63138+Q91ZM7+Q9ES14); settings: Compound concentration 10.0 uM
[3] = biological target: Alpha-2A adrenergic receptor (Homo sapiens, UniProt P08913); experiment: Adrenoceptor reporter cell assay (ADRA2A); type: functional
[4] = biological target: 5-hydroxytryptamine receptor 5A (Homo sapiens) (UniProt P47898); settings: Compound concentration 10.0 uM
[5] = biological target: Sigma intracellular receptor 2 (Homo sapiens) (UniProt Q5BJF2); settings: Compound concentration 10.0 uM
[6] = biological target: 5-hydroxytryptamine receptor 1B (Homo sapiens) (UniProt P28222); settings: Compound concentration 10.0 uM
[7] = biological target: T1, 5-hydroxytryptamine receptor 2C (Homo sapiens) (UniProt P28335); settings: Compound concentration 10.0 uM
T1 sequence (whole entry): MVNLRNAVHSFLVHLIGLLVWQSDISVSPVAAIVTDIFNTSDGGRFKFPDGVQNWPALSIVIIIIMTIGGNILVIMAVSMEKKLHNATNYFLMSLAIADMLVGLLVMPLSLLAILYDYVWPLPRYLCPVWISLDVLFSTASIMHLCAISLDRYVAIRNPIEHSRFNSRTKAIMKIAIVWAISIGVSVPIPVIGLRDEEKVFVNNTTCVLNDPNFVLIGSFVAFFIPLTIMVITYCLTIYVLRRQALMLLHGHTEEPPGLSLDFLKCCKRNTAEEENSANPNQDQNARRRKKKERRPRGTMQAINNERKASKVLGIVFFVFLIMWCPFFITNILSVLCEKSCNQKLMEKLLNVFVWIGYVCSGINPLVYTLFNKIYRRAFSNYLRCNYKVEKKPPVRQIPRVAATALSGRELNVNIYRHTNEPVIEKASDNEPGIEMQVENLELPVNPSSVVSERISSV

[8] = biological target: Mu-type opioid receptor (Homo sapiens) (UniProt P35372); settings: Compound concentration 10.0 uM
[9] = biological target: Sodium-dependent serotonin transporter (Homo sapiens) (UniProt P31645); settings: Compound concentration 10.0 uM
[10] = biological target: T2, Muscarinic acetylcholine receptor M2 (Homo sapiens) (UniProt P08172); settings: Compound concentration 10.0 uM
T2 sequence (whole entry): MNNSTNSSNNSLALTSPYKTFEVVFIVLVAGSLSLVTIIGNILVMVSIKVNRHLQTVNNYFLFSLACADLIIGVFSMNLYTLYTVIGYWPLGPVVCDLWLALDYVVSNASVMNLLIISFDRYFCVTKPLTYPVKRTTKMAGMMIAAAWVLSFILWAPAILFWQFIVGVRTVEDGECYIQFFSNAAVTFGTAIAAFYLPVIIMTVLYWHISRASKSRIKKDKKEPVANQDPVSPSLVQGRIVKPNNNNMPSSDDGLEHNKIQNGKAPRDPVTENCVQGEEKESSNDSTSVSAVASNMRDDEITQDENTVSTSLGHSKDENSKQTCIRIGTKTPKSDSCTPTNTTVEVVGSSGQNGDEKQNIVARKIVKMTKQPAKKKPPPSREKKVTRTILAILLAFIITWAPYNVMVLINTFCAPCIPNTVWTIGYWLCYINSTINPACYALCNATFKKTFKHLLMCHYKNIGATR

[11] = biological target: Histamine H1 receptor (Homo sapiens) (UniProt P35367); settings: Compound concentration 10.0 uM
[12] = biological target: T3, Muscarinic acetylcholine receptor M4 (Homo sapiens) (UniProt P08173); settings: Compound concentration 10.0 uM
T3 sequence (whole entry): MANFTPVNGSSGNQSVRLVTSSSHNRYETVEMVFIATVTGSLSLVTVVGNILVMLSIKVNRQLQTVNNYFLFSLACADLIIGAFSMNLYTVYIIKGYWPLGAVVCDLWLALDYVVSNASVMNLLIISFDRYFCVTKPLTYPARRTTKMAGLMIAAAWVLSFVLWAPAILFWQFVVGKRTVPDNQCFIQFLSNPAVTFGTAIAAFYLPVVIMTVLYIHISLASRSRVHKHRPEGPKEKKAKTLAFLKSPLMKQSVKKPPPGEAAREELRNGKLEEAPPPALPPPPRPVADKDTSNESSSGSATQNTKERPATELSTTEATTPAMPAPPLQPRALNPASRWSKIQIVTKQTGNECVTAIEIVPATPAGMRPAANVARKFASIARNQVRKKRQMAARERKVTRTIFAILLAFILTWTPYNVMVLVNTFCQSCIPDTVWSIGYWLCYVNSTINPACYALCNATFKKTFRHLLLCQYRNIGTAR

[13] = biological target: Alpha-2C adrenergic receptor (Homo sapiens) (UniProt P18825); settings: Compound concentration 10.0 uM
[14] = biological target: Alpha-1B adrenergic receptor (Homo sapiens) (UniProt P35368); settings: Compound concentration 10.0 uM
[15] = biological target: Histamine H4 receptor (Homo sapiens) (UniProt Q9H3N8); settings: Compound concentration 10.0 uM
[16] = biological target: 5-hydroxytryptamine receptor 7 (Homo sapiens) (UniProt P34969); settings: Compound concentration 10.0 uM
[17] = biological target: Muscarinic acetylcholine receptor M3 (Homo sapiens) (UniProt P20309); settings: Compound concentration 10.0 uM
[18] = biological target: 5-hydroxytryptamine receptor 3A (Homo sapiens) (UniProt P46098); settings: Compound concentration 10.0 uM
[19] = biological target: 5-hydroxytryptamine receptor 2A (Homo sapiens) (UniProt P28223); settings: Compound concentration 10.0 uM
[20] = biological target: 5-hydroxytryptamine receptor 1D (Homo sapiens) (UniProt P28221); settings: Compound concentration 10.0 uM
[21] = biological target: D(4) dopamine receptor (Homo sapiens) (UniProt P21917); settings: Compound concentration 10.0 uM
[22] = biological target: Histamine H3 receptor (Homo sapiens) (UniProt Q9Y5N1); settings: Compound concentration 10.0 uM
D(2) dopamine receptor = D(2) dopamine receptor (Homo sapiens, UniProt P14416); experiment: Bayer Inhouse […] panel (DRD2)
[23] = biological target: 5-hydroxytryptamine receptor 2B (Homo sapiens) (UniProt P41595); settings: Compound concentration 10.0 uM
[24] = biological target: Beta-1 adrenergic receptor (Homo sapiens, UniProt P08588); settings: Compound concentration 10.0 uM
[25] = biological target: Beta-3 adrenergic receptor (Homo sapiens, UniProt P13945); settings: Compound concentration 10.0 uM
Sequence of Beta-3 adrenergic receptor (P13945 whole entry, looked up): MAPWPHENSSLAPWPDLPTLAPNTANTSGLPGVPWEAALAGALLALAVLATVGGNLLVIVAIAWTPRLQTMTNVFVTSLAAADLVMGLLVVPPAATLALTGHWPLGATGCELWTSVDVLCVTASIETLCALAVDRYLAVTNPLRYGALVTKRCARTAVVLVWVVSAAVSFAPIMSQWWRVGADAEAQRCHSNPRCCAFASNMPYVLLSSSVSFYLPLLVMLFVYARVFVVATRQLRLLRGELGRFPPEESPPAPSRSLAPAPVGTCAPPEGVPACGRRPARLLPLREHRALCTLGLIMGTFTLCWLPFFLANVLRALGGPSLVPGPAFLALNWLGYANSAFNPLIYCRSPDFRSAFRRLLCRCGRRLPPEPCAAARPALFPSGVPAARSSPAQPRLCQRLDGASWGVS

Sequence of Muscarinic acetylcholine receptor M3 (Homo sapiens) (P20309 whole entry, looked up): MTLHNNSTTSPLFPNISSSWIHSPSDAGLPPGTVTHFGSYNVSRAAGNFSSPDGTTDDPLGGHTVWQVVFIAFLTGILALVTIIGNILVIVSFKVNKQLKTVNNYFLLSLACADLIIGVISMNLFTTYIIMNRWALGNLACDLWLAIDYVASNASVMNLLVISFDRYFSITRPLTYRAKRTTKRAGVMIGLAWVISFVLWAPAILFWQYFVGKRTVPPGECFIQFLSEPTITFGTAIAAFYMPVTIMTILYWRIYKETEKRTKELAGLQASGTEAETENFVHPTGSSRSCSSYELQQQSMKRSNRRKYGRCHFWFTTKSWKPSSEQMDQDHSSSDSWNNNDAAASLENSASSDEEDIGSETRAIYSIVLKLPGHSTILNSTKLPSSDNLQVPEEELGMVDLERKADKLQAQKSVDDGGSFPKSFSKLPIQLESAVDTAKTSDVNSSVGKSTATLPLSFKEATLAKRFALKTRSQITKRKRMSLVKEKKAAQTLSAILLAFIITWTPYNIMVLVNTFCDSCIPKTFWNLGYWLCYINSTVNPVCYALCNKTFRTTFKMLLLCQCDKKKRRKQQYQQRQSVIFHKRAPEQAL
Sequence of 5-hydroxytryptamine receptor 2A (Homo sapiens) (P28223 whole entry): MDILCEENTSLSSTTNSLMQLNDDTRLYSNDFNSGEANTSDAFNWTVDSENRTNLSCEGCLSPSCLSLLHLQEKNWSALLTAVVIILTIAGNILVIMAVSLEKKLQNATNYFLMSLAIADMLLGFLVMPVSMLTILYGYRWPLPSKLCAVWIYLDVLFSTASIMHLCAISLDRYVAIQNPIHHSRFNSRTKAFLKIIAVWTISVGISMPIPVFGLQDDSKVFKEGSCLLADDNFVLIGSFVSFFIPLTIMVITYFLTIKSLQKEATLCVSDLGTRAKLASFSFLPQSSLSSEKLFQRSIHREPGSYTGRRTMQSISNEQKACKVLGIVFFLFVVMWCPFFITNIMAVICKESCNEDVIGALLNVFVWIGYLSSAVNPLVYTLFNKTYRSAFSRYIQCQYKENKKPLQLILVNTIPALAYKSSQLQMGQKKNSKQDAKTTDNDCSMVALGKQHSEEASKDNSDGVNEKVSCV
Sequence of Sodium-dependent serotonin transporter (Homo sapiens) (P31645 whole entry, looked up): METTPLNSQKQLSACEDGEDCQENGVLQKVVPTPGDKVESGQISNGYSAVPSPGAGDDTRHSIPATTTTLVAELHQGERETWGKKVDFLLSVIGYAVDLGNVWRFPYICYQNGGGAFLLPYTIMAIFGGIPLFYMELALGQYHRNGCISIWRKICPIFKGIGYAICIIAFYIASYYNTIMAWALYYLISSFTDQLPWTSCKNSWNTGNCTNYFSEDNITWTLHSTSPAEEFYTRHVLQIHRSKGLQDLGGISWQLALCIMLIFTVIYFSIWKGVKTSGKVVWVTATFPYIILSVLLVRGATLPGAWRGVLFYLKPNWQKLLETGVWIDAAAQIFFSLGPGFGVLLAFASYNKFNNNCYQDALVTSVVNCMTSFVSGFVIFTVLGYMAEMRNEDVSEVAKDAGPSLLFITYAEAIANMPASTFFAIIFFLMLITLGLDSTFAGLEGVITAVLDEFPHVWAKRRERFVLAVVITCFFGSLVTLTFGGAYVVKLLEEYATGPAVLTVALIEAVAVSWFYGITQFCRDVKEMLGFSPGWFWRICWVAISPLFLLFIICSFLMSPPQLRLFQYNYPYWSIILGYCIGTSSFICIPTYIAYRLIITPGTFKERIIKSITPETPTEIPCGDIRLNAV
Sequence of 5-hydroxytryptamine receptor 3A (Homo sapiens) (P46098 whole entry): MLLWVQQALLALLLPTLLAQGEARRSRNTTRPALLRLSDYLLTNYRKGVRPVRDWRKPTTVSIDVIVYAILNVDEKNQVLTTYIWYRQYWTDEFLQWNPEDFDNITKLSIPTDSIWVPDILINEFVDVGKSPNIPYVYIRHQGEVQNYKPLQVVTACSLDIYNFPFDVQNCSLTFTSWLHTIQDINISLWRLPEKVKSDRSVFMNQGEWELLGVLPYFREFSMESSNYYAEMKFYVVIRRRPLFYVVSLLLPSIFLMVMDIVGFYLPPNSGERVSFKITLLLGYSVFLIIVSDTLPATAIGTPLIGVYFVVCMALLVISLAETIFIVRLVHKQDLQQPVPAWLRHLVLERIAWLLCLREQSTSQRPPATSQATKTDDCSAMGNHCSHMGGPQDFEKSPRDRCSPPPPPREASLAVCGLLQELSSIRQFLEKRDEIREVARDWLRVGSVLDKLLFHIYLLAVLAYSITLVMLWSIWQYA
Sequence of Mu-type opioid receptor (Homo sapiens) (P35372 whole entry): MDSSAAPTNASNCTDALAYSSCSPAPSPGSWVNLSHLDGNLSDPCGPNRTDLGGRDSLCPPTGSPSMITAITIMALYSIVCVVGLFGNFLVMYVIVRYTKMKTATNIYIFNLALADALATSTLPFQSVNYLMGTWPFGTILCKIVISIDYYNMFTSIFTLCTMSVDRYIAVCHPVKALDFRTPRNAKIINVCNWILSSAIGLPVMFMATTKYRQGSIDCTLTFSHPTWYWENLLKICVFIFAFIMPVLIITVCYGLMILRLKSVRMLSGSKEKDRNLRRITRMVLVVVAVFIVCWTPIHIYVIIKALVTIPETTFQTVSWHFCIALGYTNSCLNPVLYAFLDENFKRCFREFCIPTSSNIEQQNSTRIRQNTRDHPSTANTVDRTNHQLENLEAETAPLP
Sequence of Alpha-1D adrenergic receptor (Homo sapiens) (P25100 whole entry): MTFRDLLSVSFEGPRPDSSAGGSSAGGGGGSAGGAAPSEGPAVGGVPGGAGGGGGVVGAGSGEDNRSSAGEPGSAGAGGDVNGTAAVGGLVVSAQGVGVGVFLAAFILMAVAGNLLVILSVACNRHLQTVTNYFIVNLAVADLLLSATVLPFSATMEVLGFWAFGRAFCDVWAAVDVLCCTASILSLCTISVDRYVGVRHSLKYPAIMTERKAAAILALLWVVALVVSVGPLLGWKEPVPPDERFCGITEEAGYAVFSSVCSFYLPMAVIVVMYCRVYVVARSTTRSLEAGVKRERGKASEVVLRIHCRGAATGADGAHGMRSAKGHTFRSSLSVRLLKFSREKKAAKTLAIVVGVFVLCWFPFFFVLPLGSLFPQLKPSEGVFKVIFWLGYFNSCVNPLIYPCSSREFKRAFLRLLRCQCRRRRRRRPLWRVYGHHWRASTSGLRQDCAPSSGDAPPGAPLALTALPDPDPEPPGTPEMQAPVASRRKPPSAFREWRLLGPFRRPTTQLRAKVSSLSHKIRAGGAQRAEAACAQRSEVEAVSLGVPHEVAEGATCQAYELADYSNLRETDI
Sequence of 5-hydroxytryptamine receptor 2B (Homo sapiens) (P41595 whole entry): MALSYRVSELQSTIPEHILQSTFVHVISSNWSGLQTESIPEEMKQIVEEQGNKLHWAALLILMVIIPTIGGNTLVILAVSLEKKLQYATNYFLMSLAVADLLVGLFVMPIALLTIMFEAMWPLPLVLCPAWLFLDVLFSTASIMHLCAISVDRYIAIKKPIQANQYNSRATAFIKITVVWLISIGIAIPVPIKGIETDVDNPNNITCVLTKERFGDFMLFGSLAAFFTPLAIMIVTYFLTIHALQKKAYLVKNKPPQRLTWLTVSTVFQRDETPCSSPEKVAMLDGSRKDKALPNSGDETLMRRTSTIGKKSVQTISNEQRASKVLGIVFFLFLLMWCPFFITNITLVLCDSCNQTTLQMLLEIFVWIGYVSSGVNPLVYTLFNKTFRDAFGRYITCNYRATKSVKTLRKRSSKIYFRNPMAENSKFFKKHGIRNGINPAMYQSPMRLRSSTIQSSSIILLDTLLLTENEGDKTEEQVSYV
Sequence of D(4) dopamine receptor (Homo sapiens) (P21917 whole entry): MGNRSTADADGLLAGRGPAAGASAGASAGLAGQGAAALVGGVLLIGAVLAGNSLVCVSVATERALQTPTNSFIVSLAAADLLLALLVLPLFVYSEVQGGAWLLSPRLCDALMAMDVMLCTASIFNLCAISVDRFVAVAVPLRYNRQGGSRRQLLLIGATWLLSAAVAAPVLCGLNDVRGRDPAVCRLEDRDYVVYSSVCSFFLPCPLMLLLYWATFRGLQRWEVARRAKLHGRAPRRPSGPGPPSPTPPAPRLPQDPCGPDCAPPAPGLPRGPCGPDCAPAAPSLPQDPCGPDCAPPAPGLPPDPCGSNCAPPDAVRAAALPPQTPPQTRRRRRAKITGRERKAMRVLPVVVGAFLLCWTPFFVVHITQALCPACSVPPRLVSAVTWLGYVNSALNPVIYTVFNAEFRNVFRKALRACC
Sequence of Alpha-1B adrenergic receptor (Homo sapiens) (P35368 whole entry): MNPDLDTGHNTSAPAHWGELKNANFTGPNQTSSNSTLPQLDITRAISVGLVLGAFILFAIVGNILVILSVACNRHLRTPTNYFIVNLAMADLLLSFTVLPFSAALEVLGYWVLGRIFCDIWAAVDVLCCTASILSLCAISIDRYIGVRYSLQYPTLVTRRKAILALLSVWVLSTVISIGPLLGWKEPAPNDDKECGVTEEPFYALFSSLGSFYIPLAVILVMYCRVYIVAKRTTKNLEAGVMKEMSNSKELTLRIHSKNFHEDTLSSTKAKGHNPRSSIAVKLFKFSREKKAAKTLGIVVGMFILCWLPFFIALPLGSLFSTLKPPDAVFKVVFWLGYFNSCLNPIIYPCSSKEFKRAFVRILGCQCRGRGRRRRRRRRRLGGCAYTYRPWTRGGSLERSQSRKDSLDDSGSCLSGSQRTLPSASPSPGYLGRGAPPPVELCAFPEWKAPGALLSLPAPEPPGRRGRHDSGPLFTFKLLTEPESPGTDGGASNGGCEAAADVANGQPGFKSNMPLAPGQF

Structure (SMILES) | inhibition [1] [%] | inhibition [2] [%] | IC50 [3] | inhibition [4] [%] | inhibition [5] [%] | inhibition [6] [%] | inhibition [7] [%] | inhibition [8] [%] | inhibition [9] [%] | inhibition [10] [%] | inhibition [11] [%] | inhibition [12] [%] | inhibition [13] [%] | inhibition [14] [%] | inhibition [15] [%] | inhibition [16] [%] | inhibition [17] [%] | inhibition [18] [%] | inhibition [19] [%] | inhibition [20] [%] | further results
CNc1cc[n+](CCNC(=O)c2ccn3c(-c4c(C)noc4C)cnc3c2)cc1 | 1.62 | 20.9 | 10 µM (not active) | 3.22 | 27.5 | 9.81 | -3.48 | 6.53 | 7.14 | 3.34 | 1.15 | -6.15 | 41.3 | 0.79 | 3.02 | 5.99 | 0.75 | 6.7 | 17 | 19.5 | inhibition [21]: 11.3%; inhibition [22]: 9.04%; IC50 (D(2) dopamine receptor): 1.4 µM (not active); inhibition [23]: 4.13%; inhibition [24]: 2.87%; inhibition [25]: 1.07%
Cc1noc(C)c1-c1cnc2cc(C(=O)NCCC[n+]3ccc(N(C)C)cc3)ccn12 | 0.59 | -7.67 | > 10 µM (not active) | -2.29 | 14.1 | -0.88 | -5.48 | 18.9 | 1.28 | 7.75 | 2.11 | 12.5 | 18.3 | 1.7 | 15.9 | 3.4 | 18 | 4.99 | -4.21 | 24.2 | inhibition [21]: 3.03%; inhibition [22]: 36%; IC50 (D(2) dopamine receptor): > 20 µM (not active); inhibition [23]: 10.3%; inhibition [24]: 3.84%; inhibition [25]: -3.02%
